Patent publication US12466839B2, “Allosteric AKT inhibitors for use in the treatment of Hereditary Hemorrhagic Telangiectasia” (VADERIS THERAPEUTICS AG, priority 2020, dated 2025)
pIC50: −log10 of the molar value.

Columns and labels:
H1 = target: T1, H1 (Homo sapiens, UniProt P35367); experiment: Millipore Drug Discovery Safety and Liability Panel; type: cell-based
T1 construct: purchased Millipore

D5 = target: T2, D5 (Homo sapiens, UniProt P21918); experiment: as above; type: cell-based
T2 construct: purchased Millipore

5-HT1A = target: T3, 5-HT1A (Homo sapiens, UniProt P08908); experiment: as above; type: cell-based
T3 construct: purchased Millipore

AKT2 = AKT2 (Homo sapiens, UniProt P31751); experiment: Panel of 450 kinases; type: biochemical
DP = target: T4, DP (Homo sapiens, UniProt Q13258); experiment: Millipore Drug Discovery Safety and Liability Panel; type: cell-based
T4 construct: purchased Millipore

A1 = target: T5, A1 (Homo sapiens, UniProt P30542); experiment: as above; type: cell-based
T5 construct: purchased Millipore

OX1 = target: T6, OX1 (Homo sapiens, UniProt O43613); experiment: as above; type: cell-based
T6 construct: Millipore

NK1 = target: T7, NK1 (Homo sapiens, UniProt P25103); experiment: as above; type: cell-based
T7 construct: purchased Millipore

HCN4 = HCN4 (Homo sapiens, UniProt Q9Y3Q4); experiment: Cardiac ion channel profile; type: cell-based
EP3 = target: T8, EP3 (Homo sapiens, UniProt P43115); experiment: Millipore Drug Discovery Safety and Liability Panel; type: cell-based
T8 construct: purchased Millipore

CCR1 = target: T9, CCR1 (Homo sapiens, UniProt P32246); experiment: as above; type: cell-based
T9 construct: purchased Millipore

GPR14 = target: T10, GPR14 (Homo sapiens, UniProt Q9UKP6); experiment: as above; type: cell-based
T10 construct: purchased Millipore

[1] = system: angiogenesis in C57Bl/6J mice retinas; experiment: Neonatal retinal angiogenesis model in wild-type mice; type: in vivo, mouse (C57Bl/6J); details: 2.5 mg·kg−1
Source text: For the retinal vascular network, quantification of the number of AV shunts per mouse was done manually. […] A custom own-lab made macro allowed automatic processing of the images, using the same processing and quantification parameters. Briefly, the brightness of the images was enhanced by modifying the pixel extreme values, which depends on the specific image histogram content. A Gaussian filter was applied to reduce the intensity in homogeneities. The filter order depended on the image resolution. Next, the threshold step was computed, based on a global threshold technique such as Otsu's method or Li's method, resulting in binary image. A median filter was then applied to eliminate potential local irregularities, which could cause false branching point detection. From the binary images, the vascular density was quantified (calculated as the ratio of pixels associated with the vessels divided by the total number of pixels in the image). For the other parameters, a skeleton of the images was first computed using ImageJ, then the total vascular length was quantified using the Measure Skeleton Length plug-in from ImageJ. The number of branch points was extracted from the Analyze Skeleton plug-in of ImageJ. All results were transferred to Microsoft Office Excel software and automatically rearranged using a lab custom-made program. As all images generated at each step of the processing were saved, a visual control was made to ensure that there were no aberrant results.
Statistical analysis was performed with Prism 7 software (GraphPad). For most of the experiments, 1-way ANOVA was used for multiple comparisons. Results are expressed as mean±SEM. For post hoc pairwise, the Dunnett's test was used. A value of *P<0.05, **P<0.01, ***P<0.001 or ****P<0.0001 denotes statistical significance. An in-group variation of around 15% in parameters related to blood vessel architecture changes has been previously observed by the inventors, therefore a difference between controls and mutant mice of around 20-30% was anticipated. It was therefore expected that a group of 8 mice per condition would reveal statistical differences.
Eyes were fixed in 4% paraformaldehyde (PFA) in PBS at room temperature for 10 min, retinas were dissected, post-fixed in 4% PFA in PBS at 4° C. overnight then processed for immunostaining. Retinas were permeabilized in PBS, 1% BSA and 0.5% Triton X-100 at 4° C. overnight, rinsed in PBS, washed twice in PBlec (PBS, pH 6.8, 1% Triton-X-100, 0.1 mM CaCl2, 0.1 mM MgCl2, 0.1 mM MnCl2), and then incubated in biotinylated Griffonia simplicifolia lectin (isolectin B4) (B-1205, Vector Laboratories, 1:50) in PBlec at 4° C. overnight. After 5 washes in PBS, samples were incubated with streptavidin Cy-3 (PA43001, Sigma-Aldrich, 1:100) and with a-SMA (clone 1A4) (F3777, Sigma-Aldrich) conjugated with FITC diluted in PBS, 0.5% BSA, and 0.25% X-100 at 4° C. for 2 h. After washing, flat whole-mount retinas were mounted in DAKO medium (S3023, Dako). Complete high-resolution 3-dimensional rendering of whole-mount retinas was acquired using Laser Scanning Microscope SP5 or SP8 (Leica).

CRF1 = target: T11, CRF1 (Homo sapiens, UniProt P34998); experiment: Millipore Drug Discovery Safety and Liability Panel; type: cell-based
T11 construct: purchased Millipore

PK1 = target: T12, PK1 (Homo sapiens, UniProt Q8TCW9); experiment: as above; type: cell-based
T12 construct: Millipore

full length AKT2 = full length AKT2 (Homo sapiens, UniProt P31751); experiment: Biochemical kinase assay
CysLT1 = target: T13, CysLT1 (Homo sapiens, UniProt Q9Y271); experiment: Millipore Drug Discovery Safety and Liability Panel; type: cell-based
T13 construct: purchased Millipore

A2A = target: T14, A2A (Homo sapiens, UniProt P29274); experiment: as above; type: cell-based
T14 construct: purchased Millipore

[2] = read-out: ANTAGONIST mean % inhibition
[3] = read-out: AGONIST mean % increase in activity

T13 sequence (Q9Y271 whole entry): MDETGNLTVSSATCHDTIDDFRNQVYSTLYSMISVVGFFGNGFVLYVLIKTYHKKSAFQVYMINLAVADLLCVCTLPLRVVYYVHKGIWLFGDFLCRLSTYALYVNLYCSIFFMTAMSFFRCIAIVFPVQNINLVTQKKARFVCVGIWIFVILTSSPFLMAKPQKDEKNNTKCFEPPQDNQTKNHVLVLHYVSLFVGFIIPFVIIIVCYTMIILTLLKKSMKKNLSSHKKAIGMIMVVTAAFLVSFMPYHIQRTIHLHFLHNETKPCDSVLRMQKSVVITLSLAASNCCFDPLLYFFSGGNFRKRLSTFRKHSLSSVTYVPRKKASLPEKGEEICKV
T2 sequence (P21918 whole entry): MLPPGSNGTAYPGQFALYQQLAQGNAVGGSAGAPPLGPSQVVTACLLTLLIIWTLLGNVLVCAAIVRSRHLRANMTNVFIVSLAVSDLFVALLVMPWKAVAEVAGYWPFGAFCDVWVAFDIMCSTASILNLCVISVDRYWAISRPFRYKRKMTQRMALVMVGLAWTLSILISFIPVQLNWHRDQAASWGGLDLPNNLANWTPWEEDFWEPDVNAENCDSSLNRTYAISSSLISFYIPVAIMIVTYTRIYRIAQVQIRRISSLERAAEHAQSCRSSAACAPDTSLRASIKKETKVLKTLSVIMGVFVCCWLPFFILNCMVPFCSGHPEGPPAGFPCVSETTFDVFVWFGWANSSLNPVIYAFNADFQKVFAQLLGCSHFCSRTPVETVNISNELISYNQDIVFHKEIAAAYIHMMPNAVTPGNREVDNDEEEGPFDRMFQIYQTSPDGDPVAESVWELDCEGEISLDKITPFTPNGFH
T12 sequence (Q8TCW9 whole entry): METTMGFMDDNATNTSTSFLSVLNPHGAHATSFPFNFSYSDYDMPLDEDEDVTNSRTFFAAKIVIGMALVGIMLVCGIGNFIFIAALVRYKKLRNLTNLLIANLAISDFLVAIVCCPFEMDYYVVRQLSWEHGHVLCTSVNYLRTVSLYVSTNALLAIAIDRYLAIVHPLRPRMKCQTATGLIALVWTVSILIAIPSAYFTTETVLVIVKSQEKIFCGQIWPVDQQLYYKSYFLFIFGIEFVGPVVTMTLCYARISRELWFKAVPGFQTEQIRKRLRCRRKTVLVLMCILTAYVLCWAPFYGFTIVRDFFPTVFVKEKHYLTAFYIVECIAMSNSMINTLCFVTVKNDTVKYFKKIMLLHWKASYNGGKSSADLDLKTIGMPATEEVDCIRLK
T3 sequence (P08908 whole entry, species assumed): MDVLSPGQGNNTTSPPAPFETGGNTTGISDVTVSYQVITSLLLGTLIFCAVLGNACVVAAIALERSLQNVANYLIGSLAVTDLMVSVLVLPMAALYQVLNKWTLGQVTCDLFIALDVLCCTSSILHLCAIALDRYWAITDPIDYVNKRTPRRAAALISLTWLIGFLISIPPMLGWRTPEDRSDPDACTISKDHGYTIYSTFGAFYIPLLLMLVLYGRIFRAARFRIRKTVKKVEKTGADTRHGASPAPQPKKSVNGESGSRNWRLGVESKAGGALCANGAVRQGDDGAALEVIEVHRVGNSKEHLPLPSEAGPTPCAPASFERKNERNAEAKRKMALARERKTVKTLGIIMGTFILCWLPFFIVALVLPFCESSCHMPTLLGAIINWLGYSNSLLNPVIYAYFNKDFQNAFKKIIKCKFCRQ
T1 sequence (P35367 whole entry): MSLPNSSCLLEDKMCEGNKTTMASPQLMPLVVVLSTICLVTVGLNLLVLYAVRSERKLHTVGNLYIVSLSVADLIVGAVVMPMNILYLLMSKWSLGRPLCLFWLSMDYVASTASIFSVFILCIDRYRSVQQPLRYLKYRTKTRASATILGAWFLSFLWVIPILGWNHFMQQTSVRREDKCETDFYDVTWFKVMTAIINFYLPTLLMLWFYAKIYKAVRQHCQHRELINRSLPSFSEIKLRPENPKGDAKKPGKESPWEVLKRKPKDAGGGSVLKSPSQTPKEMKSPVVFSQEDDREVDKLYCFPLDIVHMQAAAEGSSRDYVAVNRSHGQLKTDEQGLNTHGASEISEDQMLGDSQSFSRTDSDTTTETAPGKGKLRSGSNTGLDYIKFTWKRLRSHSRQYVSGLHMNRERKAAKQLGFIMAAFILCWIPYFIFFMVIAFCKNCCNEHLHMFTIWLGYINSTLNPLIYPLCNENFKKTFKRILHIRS
T7 sequence (P25103 whole entry): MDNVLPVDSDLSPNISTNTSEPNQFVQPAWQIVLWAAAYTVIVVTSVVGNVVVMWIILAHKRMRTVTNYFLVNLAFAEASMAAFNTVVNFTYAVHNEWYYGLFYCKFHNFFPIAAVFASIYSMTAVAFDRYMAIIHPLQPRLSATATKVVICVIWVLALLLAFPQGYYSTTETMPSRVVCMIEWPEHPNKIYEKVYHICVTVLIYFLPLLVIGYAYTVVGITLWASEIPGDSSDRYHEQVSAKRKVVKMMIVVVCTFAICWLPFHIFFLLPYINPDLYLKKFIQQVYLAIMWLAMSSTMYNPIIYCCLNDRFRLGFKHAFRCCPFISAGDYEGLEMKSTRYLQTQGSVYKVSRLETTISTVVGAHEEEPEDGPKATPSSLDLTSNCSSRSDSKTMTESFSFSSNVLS
T8 sequence (P43115 whole entry): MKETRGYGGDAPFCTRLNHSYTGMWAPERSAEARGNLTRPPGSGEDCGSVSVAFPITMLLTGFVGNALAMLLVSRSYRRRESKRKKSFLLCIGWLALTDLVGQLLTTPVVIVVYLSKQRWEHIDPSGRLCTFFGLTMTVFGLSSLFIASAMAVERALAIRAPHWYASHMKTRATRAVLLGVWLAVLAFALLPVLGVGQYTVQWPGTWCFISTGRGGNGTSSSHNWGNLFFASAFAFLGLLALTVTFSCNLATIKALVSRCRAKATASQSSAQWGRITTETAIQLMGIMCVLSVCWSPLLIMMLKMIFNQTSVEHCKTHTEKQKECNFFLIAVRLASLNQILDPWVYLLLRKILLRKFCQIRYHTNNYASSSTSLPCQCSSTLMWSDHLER
T9 sequence (P32246 whole entry): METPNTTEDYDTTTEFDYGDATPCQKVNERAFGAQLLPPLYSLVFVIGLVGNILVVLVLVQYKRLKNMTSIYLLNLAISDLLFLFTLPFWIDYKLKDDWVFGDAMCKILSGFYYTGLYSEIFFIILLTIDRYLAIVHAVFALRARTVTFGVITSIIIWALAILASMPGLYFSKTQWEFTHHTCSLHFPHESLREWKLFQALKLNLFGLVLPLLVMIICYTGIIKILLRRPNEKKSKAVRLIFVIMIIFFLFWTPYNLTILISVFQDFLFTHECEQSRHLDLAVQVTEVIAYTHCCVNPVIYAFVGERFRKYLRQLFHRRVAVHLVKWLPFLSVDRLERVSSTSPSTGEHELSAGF
T14 sequence (P29274 whole entry): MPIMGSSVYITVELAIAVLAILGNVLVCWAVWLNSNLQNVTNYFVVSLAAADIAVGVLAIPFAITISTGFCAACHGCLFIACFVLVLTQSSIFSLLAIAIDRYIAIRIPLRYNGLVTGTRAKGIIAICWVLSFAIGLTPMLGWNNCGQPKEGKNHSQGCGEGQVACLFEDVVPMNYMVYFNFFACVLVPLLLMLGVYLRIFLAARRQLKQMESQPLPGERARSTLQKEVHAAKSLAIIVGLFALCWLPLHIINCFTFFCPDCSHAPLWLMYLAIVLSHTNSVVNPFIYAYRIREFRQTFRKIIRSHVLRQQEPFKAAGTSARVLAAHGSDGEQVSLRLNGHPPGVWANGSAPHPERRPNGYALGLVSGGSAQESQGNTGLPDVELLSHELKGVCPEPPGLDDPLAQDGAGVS
T4 sequence (Q13258 whole entry): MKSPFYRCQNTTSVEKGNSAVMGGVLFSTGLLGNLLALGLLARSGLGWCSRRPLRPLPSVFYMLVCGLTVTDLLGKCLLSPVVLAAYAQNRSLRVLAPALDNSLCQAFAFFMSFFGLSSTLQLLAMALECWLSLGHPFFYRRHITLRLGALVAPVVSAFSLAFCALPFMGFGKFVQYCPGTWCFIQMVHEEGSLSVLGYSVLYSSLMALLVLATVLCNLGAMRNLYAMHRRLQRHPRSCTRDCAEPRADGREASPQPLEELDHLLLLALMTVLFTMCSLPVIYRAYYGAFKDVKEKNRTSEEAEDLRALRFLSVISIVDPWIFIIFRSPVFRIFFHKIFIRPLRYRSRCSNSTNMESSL
T11 sequence (P34998 24-415): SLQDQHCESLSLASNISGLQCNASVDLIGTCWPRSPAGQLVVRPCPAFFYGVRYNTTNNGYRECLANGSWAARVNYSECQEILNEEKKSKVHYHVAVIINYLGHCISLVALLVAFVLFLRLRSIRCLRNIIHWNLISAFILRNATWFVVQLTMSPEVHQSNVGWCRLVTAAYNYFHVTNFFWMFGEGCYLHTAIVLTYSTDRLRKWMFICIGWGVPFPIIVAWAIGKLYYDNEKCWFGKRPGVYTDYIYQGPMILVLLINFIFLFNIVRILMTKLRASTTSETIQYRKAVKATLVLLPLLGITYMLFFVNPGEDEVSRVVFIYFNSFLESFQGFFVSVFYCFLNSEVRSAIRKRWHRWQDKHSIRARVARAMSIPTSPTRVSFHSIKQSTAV
T6 sequence (O43613 whole entry): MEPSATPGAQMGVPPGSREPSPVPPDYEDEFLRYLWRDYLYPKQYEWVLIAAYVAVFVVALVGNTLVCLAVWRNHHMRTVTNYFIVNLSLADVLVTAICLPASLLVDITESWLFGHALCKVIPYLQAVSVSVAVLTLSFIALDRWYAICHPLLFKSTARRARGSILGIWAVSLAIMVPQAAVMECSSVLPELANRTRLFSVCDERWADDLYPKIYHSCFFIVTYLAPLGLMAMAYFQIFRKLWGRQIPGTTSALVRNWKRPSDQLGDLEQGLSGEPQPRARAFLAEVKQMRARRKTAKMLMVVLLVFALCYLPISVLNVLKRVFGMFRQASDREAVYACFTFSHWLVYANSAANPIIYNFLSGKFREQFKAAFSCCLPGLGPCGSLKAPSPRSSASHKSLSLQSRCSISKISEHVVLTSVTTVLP

CCN1C(=O)COc2nc(-c3ccc(C4(N)CC(O)C4)cc3)c(-c3ccccc3)cc21.O=C(O)C(O)C(O)C(=O)O [VAD044, 6-(4-(1-amino-3-hydroxycyclobutyl)phenyl)-1-ethyl-7-phenyl-1H-pyrido[2,3-b][1,4]oxazin-2(3H)-one L-tartrate]
activation at 10 µM (H1; H1, 10 μM, read-out: AGONIST mean % increase in activity): -0.2%
inhibition at 10 µM (H1; [2]): 3.8%
activation at 10 µM (D5; [3]): -0.8%
inhibition at 10 µM (D5; [2]): 35.4%
activation at 10 µM (5-HT1A; [3]): 2.1%
inhibition at 10 µM (5-HT1A; [2]): 30.6%
inhibition at 10 µM (AKT2): 95%
activation at 10 µM (DP; DP, 10 μM, read-out: AGONIST mean % increase in activity): -1.7%
inhibition at 10 µM (DP; [2]): 5.8%
activation at 10 µM (A1; A1, 10 μM, read-out: AGONIST mean % increase in activity): 0%
inhibition at 10 µM (A1; [2]): 7.7%
activation at 10 µM (OX1; OX1, 10 μM, read-out: AGONIST mean % increase in activity): -1.8%
inhibition at 10 µM (OX1; [2]): -3.8%
activation at 10 µM (NK1; NK1, 10 μM, read-out: AGONIST mean % increase in activity): -1.4%
inhibition at 10 µM (NK1; [2]): 2.4%
inhibition at 10 µM (HCN4): < 25%
activation at 10 µM (EP3; EP3, 10 μM, read-out: AGONIST mean % increase in activity): -0.1%
inhibition at 10 µM (EP3; [2]): 9.2%
activation at 10 µM (CCR1; CCR1, 10 μM, read-out: AGONIST mean % increase in activity): 0.2%
inhibition at 10 µM (CCR1; [2]): 9.5%
activation at 10 µM (GPR14; [3]): 29.5%
inhibition at 10 µM (GPR14; [2]): 52.9%
impact on normal angiogenesis [1]: little or no impact on normal angiogenesis
activation at 10 µM (CRF1; CRF1, 10 μM, read-out: AGONIST mean % increase in activity): 0%
inhibition at 10 µM (CRF1; [2]): 2.3%
inhibition at 10 µM (PK1; PK-1, read-out: ANTAGONIST mean % inhibition): -2.1%
activation at 10 µM (PK1; PK-1, PK1, 10 μM, read-out: AGONIST mean % increase in activity): 0%
pIC50 (full length AKT2): 7.02
activation at 10 µM (CysLT1; CysLT1, 10 μM, read-out: AGONIST mean % increase in activity): -0.8%
inhibition at 10 µM (CysLT1; [2]): 1.5%
AGONIST mean % increase in activity (A2A; A2A, 10 μM): 2.3%
inhibition at 10 µM (A2A; [2]): 12.5%
